Measurements: article PMC12030627, “Radioiodinated Bicyclic RGD Peptide Derivatives for Enhanced Tumor Accumulation” (Pharmaceuticals, 2025)
Starred links: 1 amine or outer side, 2 acyl side, 3 side chain; linkers in the order of their positions; H or OH if unused. Positions of bridges follow the written chain, without caps; N, C: chain ends. Non-standard residues stand in square brackets, D forms with d. Residues, ends and D or L forms follow the SMILES beside them. *: point of attachment. Butanoyl(4-(4-I-phenyl)) = O=C(CCCc1ccc(I)cc1)*; TBMB = c1c(C[*:1])cc(C[*:3])cc1C[*:2]; Palmitoyl = CCCCCCCCCCCCCCCC(=O)*; Benzoyl(3-I) = O=C(c1cccc(I)c1)*; 4Abz = Nc1ccc(C(=O)O)cc1

Experiments:
His-tagged integrin αVβ3 = molecular target: T1, His-tagged integrin αVβ3 (Homo sapiens, UniProt P05106+P06756); test: In vitro selectivity assay, His-tag Dynabeads pulldown, integrin αVβ3; assay type: binding; conditions: for Radioactivity accumulation in αVβ3 protein: 10 kBq probe, 10 pmol His-tagged integrin, 37 °C 2 h, pH 7.4 buffer, without cyclo-(RGDfK); for Radioactivity accumulation in αVβ3 protein with cyclo-(RGDfK) blocking versus free: cyclo-(RGDfK) 25 μM preincubated 30 min at 37 °C, 2 h incubation, unpaired t-test p < 0.001
T1 construct: purchased ACRO Biosystems IT3-H52E3
Method: (§1) Binding assays were conducted following our previously reported method, using the Dynabeads™ His-Tag Isolation and Pulldown protocol (Thermo Fisher Scientific, Tokyo, Japan). Briefly, [^125I]bcRGDpal or [^125I]bcRGDiba (10 kBq/sample) was incubated at 37 °C for 2 h in 200 μL of incubation buffer (3.25 mM sodium phosphate, 70 mM NaCl, 0.01% Tween 20, pH 7.4) with 10 pmol of His-tagged integrin αVβ3, αVβ5, or α5β1 proteins (αVβ3: IT3-H52E3, ACRO Biosystems, Newark, DE, USA; αVβ5: 2528-AV, R&D Systems, Minneapolis, MN, USA; α5β1: CT014-H2508H, Sino Biological, Beijing, China). For the inhibition group, cyclo(RGDfK) (25 μM, S7834, Selleck, Houston, TX, USA) was preincubated with the integrin protein for 30 min at 37 °C. Next, A 2× binding buffer (100 mM sodium phosphate, 600 mM NaCl, 0.01% Tween 20, pH 8.0) was mixed with the solution at a 1:1 volume ratio and incubated with 5 μL of magnetic beads at 37 °C for 10 min to enable protein immobilization. Following immobilization, the beads were rinsed three times with the binding buffer, and radioactivity was measured using a NaI well-type scintillation counter (2480 Wizard2; PerkinElmer Japan, Yokohama, Japan). Protein binding was expressed as %dose/nmol protein.

His-tagged integrin αVβ5 = molecular target: T2, His-tagged integrin αVβ5 (Homo sapiens, UniProt P06756+P18084); test: In vitro selectivity assay, His-tag Dynabeads pulldown, integrin αVβ5; assay type: binding; conditions: cyclo-(RGDfK) 25 μM blocking; 2 h incubation at 37 °C
T2 construct: purchased R&D Systems 2528-AV
Method: as §1

His-tagged integrin α5β1 = molecular target: T3, His-tagged integrin α5β1 (Homo sapiens, UniProt P05556+P08648); test: In vitro selectivity assay, His-tag Dynabeads pulldown, integrin α5β1; assay type: binding; conditions: cyclo-(RGDfK) 25 μM blocking; 2 h incubation at 37 °C
T3 construct: purchased Sino Biological CT014-H2508H
Method: as §1

U-87 MG-bearing mice = test: Biodistribution in U-87 MG tumor-bearing mice; assay type: in vivo, BALB/c nu-nu mice; conditions: U-87 MG-bearing mice, mean ± SD, n = 3
Summary of the method: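 Male BALB/c nu/nu mice bearing subcutaneous U-87 MG (right leg), or also A549 (left leg), tumors ~10 mm; 37 kBq radiotracer given IV in PBS-0.1% Tween 80. Single-tumor mice sampled 5 min–24 h, co-implanted mice at 2 h (or 30 min–4 h for dimer); organ radioactivity counted by NaI scintillation, expressed as %ID/g.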

[1] = 5 min after i.v. administration
[2] = 30 min after i.v. administration

T1 sequence (P06756 31-992 limits assumed): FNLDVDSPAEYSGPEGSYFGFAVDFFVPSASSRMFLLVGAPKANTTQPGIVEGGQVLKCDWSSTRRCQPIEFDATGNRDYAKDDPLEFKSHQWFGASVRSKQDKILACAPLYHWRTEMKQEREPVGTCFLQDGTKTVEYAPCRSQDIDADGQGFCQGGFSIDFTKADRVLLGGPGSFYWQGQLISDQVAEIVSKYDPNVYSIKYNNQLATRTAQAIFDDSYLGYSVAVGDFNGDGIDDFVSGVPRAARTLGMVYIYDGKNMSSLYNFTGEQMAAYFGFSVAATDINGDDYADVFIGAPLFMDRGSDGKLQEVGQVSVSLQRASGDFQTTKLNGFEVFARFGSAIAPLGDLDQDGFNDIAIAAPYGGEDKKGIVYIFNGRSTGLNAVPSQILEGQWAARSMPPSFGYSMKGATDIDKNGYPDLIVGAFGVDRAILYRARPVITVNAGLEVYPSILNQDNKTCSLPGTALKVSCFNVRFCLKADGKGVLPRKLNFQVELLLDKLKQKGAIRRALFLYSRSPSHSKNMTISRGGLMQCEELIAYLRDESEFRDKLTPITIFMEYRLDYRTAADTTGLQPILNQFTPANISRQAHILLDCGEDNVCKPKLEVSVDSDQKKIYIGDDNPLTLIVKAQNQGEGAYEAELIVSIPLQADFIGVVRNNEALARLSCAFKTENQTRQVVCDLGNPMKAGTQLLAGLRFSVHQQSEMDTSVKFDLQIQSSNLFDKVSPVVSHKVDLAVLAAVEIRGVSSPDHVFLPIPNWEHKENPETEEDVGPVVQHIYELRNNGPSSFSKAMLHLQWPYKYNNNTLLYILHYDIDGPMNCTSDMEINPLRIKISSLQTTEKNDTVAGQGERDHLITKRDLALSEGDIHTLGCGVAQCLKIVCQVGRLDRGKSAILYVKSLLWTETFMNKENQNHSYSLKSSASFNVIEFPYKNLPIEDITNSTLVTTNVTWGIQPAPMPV
T1 sequence (P05106 27-718 limits assumed): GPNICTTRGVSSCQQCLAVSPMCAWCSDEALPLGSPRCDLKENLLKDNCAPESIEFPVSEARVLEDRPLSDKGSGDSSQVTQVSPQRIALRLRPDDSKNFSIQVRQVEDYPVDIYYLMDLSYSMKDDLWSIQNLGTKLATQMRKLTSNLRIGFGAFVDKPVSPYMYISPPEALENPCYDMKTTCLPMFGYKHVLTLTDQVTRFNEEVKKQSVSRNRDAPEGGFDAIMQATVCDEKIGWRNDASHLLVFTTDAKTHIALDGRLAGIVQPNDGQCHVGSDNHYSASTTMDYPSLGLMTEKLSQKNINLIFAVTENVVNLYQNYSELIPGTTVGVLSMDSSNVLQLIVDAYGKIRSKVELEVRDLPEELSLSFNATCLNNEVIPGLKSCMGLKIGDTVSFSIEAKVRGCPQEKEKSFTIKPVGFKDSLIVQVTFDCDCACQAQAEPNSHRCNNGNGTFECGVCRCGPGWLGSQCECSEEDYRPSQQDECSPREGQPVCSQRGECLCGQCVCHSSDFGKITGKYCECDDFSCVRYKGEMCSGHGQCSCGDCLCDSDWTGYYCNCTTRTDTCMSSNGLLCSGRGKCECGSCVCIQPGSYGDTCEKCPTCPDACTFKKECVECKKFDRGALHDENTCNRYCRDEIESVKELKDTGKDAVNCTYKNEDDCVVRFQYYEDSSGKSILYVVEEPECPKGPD
T2 sequence (P06756 31-992 limits assumed): as the sequence (P06756 31-992 limits assumed) above
T2 sequence (P18084 24-719 limits assumed): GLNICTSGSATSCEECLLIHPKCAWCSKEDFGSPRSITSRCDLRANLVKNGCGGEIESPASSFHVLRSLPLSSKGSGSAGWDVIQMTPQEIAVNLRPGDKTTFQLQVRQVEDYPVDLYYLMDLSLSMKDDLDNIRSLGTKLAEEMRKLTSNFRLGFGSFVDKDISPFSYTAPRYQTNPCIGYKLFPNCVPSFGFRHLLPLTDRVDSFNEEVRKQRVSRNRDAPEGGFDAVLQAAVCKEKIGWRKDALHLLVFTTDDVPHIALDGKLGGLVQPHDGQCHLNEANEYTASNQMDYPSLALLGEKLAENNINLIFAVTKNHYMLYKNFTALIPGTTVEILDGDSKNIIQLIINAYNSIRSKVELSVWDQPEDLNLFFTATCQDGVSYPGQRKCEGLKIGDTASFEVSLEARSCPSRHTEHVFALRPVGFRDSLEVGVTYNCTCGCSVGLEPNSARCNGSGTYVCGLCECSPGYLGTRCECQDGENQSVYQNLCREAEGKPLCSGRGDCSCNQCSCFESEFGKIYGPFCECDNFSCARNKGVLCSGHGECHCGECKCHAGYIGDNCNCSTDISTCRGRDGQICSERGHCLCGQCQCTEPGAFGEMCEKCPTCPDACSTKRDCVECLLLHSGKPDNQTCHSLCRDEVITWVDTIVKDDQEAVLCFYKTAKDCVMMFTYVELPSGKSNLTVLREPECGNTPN
T3 sequence (P08648 42-995 limits assumed): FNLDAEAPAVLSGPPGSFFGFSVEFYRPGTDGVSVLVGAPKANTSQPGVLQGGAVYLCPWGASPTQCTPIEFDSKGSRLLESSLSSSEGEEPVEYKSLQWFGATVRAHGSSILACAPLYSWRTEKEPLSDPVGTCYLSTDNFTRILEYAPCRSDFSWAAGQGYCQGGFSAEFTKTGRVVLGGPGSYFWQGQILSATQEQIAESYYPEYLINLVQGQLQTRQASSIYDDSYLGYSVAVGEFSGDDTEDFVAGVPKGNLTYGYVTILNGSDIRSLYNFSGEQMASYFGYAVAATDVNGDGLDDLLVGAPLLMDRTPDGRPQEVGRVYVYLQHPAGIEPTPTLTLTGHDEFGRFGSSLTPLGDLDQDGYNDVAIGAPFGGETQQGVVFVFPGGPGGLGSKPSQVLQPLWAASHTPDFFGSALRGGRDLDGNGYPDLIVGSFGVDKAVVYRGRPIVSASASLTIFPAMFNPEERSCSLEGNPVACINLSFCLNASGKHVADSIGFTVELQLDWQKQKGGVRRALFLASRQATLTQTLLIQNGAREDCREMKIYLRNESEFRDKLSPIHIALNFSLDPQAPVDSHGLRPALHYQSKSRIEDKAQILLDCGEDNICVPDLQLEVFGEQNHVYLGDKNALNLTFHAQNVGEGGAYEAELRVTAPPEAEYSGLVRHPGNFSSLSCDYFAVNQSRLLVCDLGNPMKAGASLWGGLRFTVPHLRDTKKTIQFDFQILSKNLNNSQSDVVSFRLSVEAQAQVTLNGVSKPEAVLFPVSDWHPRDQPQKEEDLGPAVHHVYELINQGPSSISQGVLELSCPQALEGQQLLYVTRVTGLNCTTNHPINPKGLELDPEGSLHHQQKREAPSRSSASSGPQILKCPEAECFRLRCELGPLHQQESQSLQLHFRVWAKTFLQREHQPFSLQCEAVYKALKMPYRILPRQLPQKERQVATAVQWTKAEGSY
T3 sequence (P05556 21-728 limits assumed): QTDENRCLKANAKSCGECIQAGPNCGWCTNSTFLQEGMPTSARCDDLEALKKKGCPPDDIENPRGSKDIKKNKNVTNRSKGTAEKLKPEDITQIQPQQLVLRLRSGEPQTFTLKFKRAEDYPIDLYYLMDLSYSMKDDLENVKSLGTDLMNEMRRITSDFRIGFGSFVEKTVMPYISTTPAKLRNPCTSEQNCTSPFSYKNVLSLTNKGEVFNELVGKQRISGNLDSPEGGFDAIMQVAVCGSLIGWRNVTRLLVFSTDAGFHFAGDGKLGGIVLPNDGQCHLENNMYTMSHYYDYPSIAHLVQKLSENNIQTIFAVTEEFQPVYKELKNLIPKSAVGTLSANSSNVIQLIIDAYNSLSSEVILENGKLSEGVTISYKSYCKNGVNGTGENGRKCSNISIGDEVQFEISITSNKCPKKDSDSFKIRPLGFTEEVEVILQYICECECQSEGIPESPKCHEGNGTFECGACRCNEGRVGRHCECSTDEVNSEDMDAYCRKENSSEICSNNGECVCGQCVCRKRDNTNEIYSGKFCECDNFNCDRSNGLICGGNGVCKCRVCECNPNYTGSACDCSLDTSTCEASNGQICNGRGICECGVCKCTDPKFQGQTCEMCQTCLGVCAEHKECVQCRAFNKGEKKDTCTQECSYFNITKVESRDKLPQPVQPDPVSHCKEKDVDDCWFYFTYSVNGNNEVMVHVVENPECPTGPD

Compound | Radioactivity accumulation in αVβ3 protein (His-tagged integrin αVβ3) | Radioactivity accumulation in αVβ3 protein with cyclo-(RGDfK) blocking versus free (His-tagged integrin αVβ3) | Radioactivity accumulation in αVβ5 protein, treatment versus inhibitor group (His-tagged integrin αVβ5) | Radioactivity accumulation in α5β1 protein, treatment versus inhibitor group (His-tagged integrin α5β1) | U87/Blood radioactivity ratio (U-87 MG-bearing mice; [1]) | U87/Blood radioactivity ratio (U-87 MG-bearing mice; [2]) | U87/Muscle radioactivity ratio (U-87 MG-bearing mice; [2]) | U87/Blood radioactivity ratio (U-87 MG-bearing mice; 1 h after i.v. administration) | U87/Muscle radioactivity ratio (U-87 MG-bearing mice; 1 h after i.v. administration) | U87/Blood radioactivity ratio (U-87 MG-bearing mice; 2 h after i.v. administration) | U87/Muscle radioactivity ratio (U-87 MG-bearing mice; 2 h after i.v. administration) | U87/Blood radioactivity ratio (U-87 MG-bearing mice; 6 h after i.v. administration) | U87/Muscle radioactivity ratio (U-87 MG-bearing mice; 6 h after i.v. administration) | Radioactivity in thyroid (U-87 MG-bearing mice; 12 h after i.v. administration) [% injected dose] | U87/Blood radioactivity ratio (U-87 MG-bearing mice; 12 h after i.v. administration) | U87/Muscle radioactivity ratio (U-87 MG-bearing mice; 12 h after i.v. administration) | Radioactivity in U-87 MG tumor (U-87 MG-bearing mice; 24 h after i.v. administration) [% ID/g] | Radioactivity in brain (U-87 MG-bearing mice; 24 h after i.v. administration) | Radioactivity in thyroid (U-87 MG-bearing mice; 24 h after i.v. administration) [% injected dose] | U87/Blood radioactivity ratio (U-87 MG-bearing mice; 24 h after i.v. administration) | also measured
N=C(N)NCCC[C@@H]1NC(=O)[C@H]2CSCc3cc(cc(c3)CSC[C@H](C(N)=O)NC(=O)[C@H](CC(=O)O)NC(=O)CNC1=O)CSC[C@H](NC(=O)CNC(=O)[C@H](CO)NC(=O)c1ccc(NC(=O)CNC(=O)[C@H](CO)NC(=O)[C@@H]3CCCN3C(=O)[C@@H]3CCCN3C(=O)[C@@H]3CCCN3C(=O)[C@H](CCCCNC(=O)c3cccc(I)c3)NC(=O)CCCc3ccc(I)cc3)cc1)C(=O)N[C@@H](Cc1c[nH]cn1)C(=O)N1CCC[C@H]1C(=O)N[C@@H](CCC(N)=O)C(=O)N2 [[^125I]bcRGDiba] ({Butanoyl(4-(4-I-phenyl))}-K(Benzoyl(3-I))PPPSG[4Abz]SGCHPQ[dC]RGD[dC]-NH2; linker 10-14-18 via TBMB) | high radioactivity accumulation | significantly inhibited | No differences | No differences | 0.1 ± 0.0 | 0.2 ± 0.0 | 2.3 ± 0.6 | 0.2 ± 0.0 | 2.3 ± 0.4 | 0.3 ± 0.0 | 2.4 ± 0.3 | 0.3 ± 0.0 | 2.5 ± 0.3 | 0.0 ± 0.0 | 0.4 ± 0.1 | 2.6 ± 0.3 | 0.5 | 0.0 ± 0.0 % injected dose per gram of tissue | 0.0 ± 0.0 | 0.4 ± 0.1 | U87/Muscle radioactivity ratio (U-87 MG-bearing mice; [1]): 1.6 ± 0.3; U87/Muscle radioactivity ratio (U-87 MG-bearing mice; 24 h after i.v. administration): 2.1 ± 0.4
CCCCCCCCCCCCCCCC(=O)N[C@@H](CCCCNC(=O)c1cccc(I)c1)C(=O)N1CCC[C@H]1C(=O)N1CCC[C@H]1C(=O)N1CCC[C@H]1C(=O)N[C@@H](CO)C(=O)NCC(=O)Nc1ccc(C(=O)N[C@@H](CO)C(=O)NCC(=O)N[C@H]2CSCc3cc4cc(c3)CSC[C@@H](NC(=O)[C@H](CCC(N)=O)NC(=O)[C@@H]3CCCN3C(=O)[C@H](Cc3c[nH]cn3)NC2=O)C(=O)N[C@@H](CCCNC(=N)N)C(=O)NCC(=O)N[C@@H](CC(=O)O)C(=O)N[C@@H](C(N)=O)CSC4)cc1 [[^125I]bcRGDpal] (Palmitoyl-K(Benzoyl(3-I))PPPSG[4Abz]SGCHPQ[dC]RGD[dC]-NH2; linker 10-14-18 via TBMB) | high radioactivity accumulation | significantly inhibited | No differences | No differences | 0.1 ± 0.0 | 0.3 ± 0.0 | 2.1 ± 0.3 | 0.4 ± 0.1 | 2.9 ± 0.2 | 0.5 ± 0.0 | 3.7 ± 0.4 | 0.5 ± 0.1 | 3.3 ± 0.8 | 0.0 ± 0.0 | 0.4 ± 0.0 | 3.4 ± 0.5 | 0.3 | 0.0 ± 0.0 % injected dose per gram of tissue | 0.0 ± 0.0 | 0.5 ± 0.1 | U87/Muscle radioactivity ratio (U-87 MG-bearing mice; 24 h after i.v. administration): 2.4 ± 0.4
